Experimental data: PMC9112550, “Optimization of the antimicrobial peptide Bac7 by deep mutational scanning” (BMC Biology, 2022)
“Also recorded” adds a separate entry of the source. Where no end group is shown, it is not given here.

What was measured:
[1] = test system: CD-1 mice; test: Maximum tolerated dose / in vivo toxicity; parameters: species or system mouse
Protocol: CD-1 mice (7 weeks old, 27–28 g female) were used (Charles River, France). These animals were housed for a week of acclimation period before the experiment in a protected area in the ‘Centre de Zootechnie de l’Université de Bourgogne’ (Biosafety level 2 facility) and fed ad libitum according to the current recommendations by the European Institute of Health. Housing took place in rooms where a 12-h/12 h light/dark cycle is applied, the temperature ranges from 18 to 21°C and the relative humidity from 45 to 65%. The animal facility is authorized by the French authorities (Agreement N° C 21 464 04 EA). […]
For animal experiments, Bac7PS was synthesized at Genscript as acetate salt and with a purity of 92%. […] First, the maximum tolerated dose (MTD) for the peptide was determined by testing different peptide doses in 8 groups with 5 animals per group. The peptide solution was administered once by intraperitoneal (IP) injection with a volume of between 94 and 240 μl (depending on the weight of the animal and the dosage) and the animals were monitored for 2 h following the injection, then 6 to 8 h later, and then once or twice a day, depending on the clinical status, up to 5 days post-injection. […] As endpoint, the wellbeing and survival rate, on a twice daily based evaluation for up to 3 days, was monitored.

[2] = test system: HeLa cells; test: In vitro toxicity assay (MTT), HeLa; assay type: cell-based, human
Protocol: (§1) HeLa epithelioid cervix carcinoma cells (originally purchased: 93021013, Sigma Aldrich) and HEK 293 human embryonic kidney (originally purchased: 85120602, Sigma Aldrich) were routinely cultivated in Dulbecco’s MEM high glucose (DMEM, with L-glutamine, without phenol red, 1-26P32, Bioconcept, Allschwil, CH), supplemented with 10% fetal bovine serum (heat inactivated, sterile filtered, F9665, Sigma Aldrich) and 100 IU ml^−1/100 μg ml^−1 Penicillin/streptomycin (4-01F00, Bioconcept) at 37°C with 5% CO2. Cells were split at a confluency of ≤ 90% (every 3 to 4 days) and maintained for max. 10 passages before a fresh aliquot of cells were seeded. […] The cell concentration was determined using a Countess 2 device (Thermo Fisher Scientific) and approx. 5000 (HeLa) or 25,000 (HEK 293) cells were seeded into wells of a 96-well plate (F-bottom, PS, 655180, Greiner) together with 100 μl DMEM. […] For each dilution series, the IC50 value was determined by computing a weighted n-parameters logistic regression using the “nplr” package in R (https://CRAN.R-project.org/package=nplr). […]

[3] = test system: HEK 293 cells; assay type: cell-based, human; details: MTT, 24 h, 37°C, triplicates, read-out: Toxicity IC50
Protocol: as §1

[4] = test system: E. coli TOP10; test: Membrane damage assay in MHB II (GFP loss, PI uptake); assay type: cell-based; details: n = 3
[5] = approximately 16-fold above its MIC (~35 μM)
[6] = at the MIC up to 8-fold higher concentrations

## RRIRIRPPRLPRPRPRPYFMPRP [Bac7PS]
[1]; 40 mg kg^−1 IP, repeated 4 h after first dosing
  tolerability of a second administration: does not influence the survival of mice; also recorded: tolerated
[1]; intraperitoneal, 3 days, single administration, 5 animals per group
  maximal dose at which all CD-1 mice survived: 50 mg/kg
[2]; HeLa, MTT, 24 h, 37°C, triplicates
  IC50: 521 µM
[2]; IC50 HeLa divided by MIC50 from clinical isolates
  therapeutic index (TI), Toxicity/MIC: 180
[3]
  IC50: 755 µM
[4]; [5]
  PI-positive cells: ~ 3%
  cells that lost GFP: 26%
[4]; [6]
  PI-positive cells: ~ 1%
  cells that retained GFP levels: ~ 99%
